Source: patent publication US20190249218A1, “Method, Medium and Kit for Detecting Multiple Aminoglycoside Resistance Including 16S rRNA Methylase Mediated Resistance in Gram-Negative Bacteria” (priority 2016, published 2019)
≈ marks a conversion by molar mass, not a printed value. Where two headings read alike, the source gives them in different places.

Assays:
Assay in all cases: MIC by broth microdilution
K. pneumoniae = assay type: cell-based, Klebsiella pneumoniae; conditions: for MIC: Klebsiella pneumoniae, read-out: MIC
Experimental: (§1) MICs of amikacin and gentamicin were determined using the broth microdilution method in cation-adjusted Mueller-Hinton broth, as recommended by the Clinical Laboratory Standard Institute (CLSI) guidelines (8). Amikacin and gentamicin sulfate (Fluorochem, Dertbyshire, UK) were tested over a range of dilutions from 0.25 to 256 μg/ml. A final inoculum of 5.10^5 CFU/ml of each strain was distributed in the 96 wells tray (Sarstedt, Ntimbrecht, Germany). All experiments were repeated in triplicate and E. coli ATCC 25922 was used as quality control. According to the CLSI breakpoints (9), Enterobacteriaceae isolates with gentamicin MICs≤4 and amikacin MICs≤16 mg/L were categorized as susceptible, while those with gentamicin MICs≥16 and amikacin MICs≥64 mg/L were categorized as resistant.
(§2) MICs of amikacin and gentamicin were determined as described above in Example 1.

E. cloacae = assay type: cell-based, Enterobacter cloacae; conditions: for MIC: Enterobacter cloacae, read-out: MIC
Experimental: as §1, §2

P. mirabilis = assay type: cell-based, Proteus mirabilis; conditions: for MIC: Proteus mirabilis, read-out: MIC
Experimental: as §1, §2

P. stuartii = assay type: cell-based, Providencia stuartii; conditions: for MIC: Providencia stuartii, read-out: MIC
Experimental: as §1, §2

P. rettgeri = assay type: cell-based, Providencia rettgeri; conditions: AAC(2′)
Experimental: as §1, §2

S. marcescens = assay type: cell-based, Serratia marcescens; conditions: AAC(3)-I
Experimental: as §1, §2

A. baumannii = assay type: cell-based, Acinetobacter baumannii; conditions: Acinetobacter baumannii
Experimental: as §1, §2

P. aeruginosa = assay type: cell-based, Pseudomonas aeruginosa; conditions: Pseudomonas aeruginosa, read-out: MIC
Experimental: as §1, §2

[1] = isolate 13000, K. pneumoniae, APH(3′)-I + AAC(3)-V
[2] = isolate 22233, K. pneumoniae, AAC(3)-V
[3] = isolate N34, K. pneumoniae, rmtC
[4] = isolate R108, K. pneumoniae, armA
[5] = isolate R347, K. pneumoniae, AG susceptible
[6] = isolate R500, K. pneumoniae, armA
[7] = isolate R502, K. pneumoniae, rmtF
[8] = isolate R2160, K. pneumoniae, rmtG
[9] = isolate R2257, K. pneumoniae, armA
[10] = isolate S155, K. pneumoniae, AG susceptible
[11] = isolate 1110, E. cloacae, ANT(2″)
[12] = isolate HM, E. cloacae, AG susceptible
[13] = isolate R713, E. cloacae, AG susceptible
[14] = isolate R1433, E. cloacae, AG susceptible
[15] = isolate R2258, E. cloacae, armA
[16] = isolate R2260, P. mirabilis, AG susceptible
[17] = isolate BM2667, P. stuartii, APH(3′)-VI + AAC(2′)
[18] = isolate R265, P. stuartii, rmtC

NCC[C@H](O)C(=O)N[C@@H]1C[C@H](N)[C@@H](O[C@H]2O[C@H](CN)[C@@H](O)[C@H](O)[C@H]2O)[C@H](O)[C@H]1O[C@H]1O[C@H](CO)[C@@H](O)[C@H](N)[C@H]1O [Amikacin]
MIC (K. pneumoniae; isolate 1800, K. pneumoniae, AAC(6′)-I + AAC(3)-I): 32 µg/mL | MIC (K. pneumoniae; [1]): 0.5 µg/mL | MIC (K. pneumoniae; [2]): 16 µg/mL (≈ 27.3 µM) | MIC (K. pneumoniae; [3]): > 256 µg/mL | MIC (K. pneumoniae; [4]): > 256 µg/mL | MIC (K. pneumoniae; [5]): 4 µg/mL (≈ 6.83 µM) | MIC (K. pneumoniae; [6]): > 256 µg/mL | MIC (K. pneumoniae; [7]): > 256 µg/mL | MIC (K. pneumoniae; [8]): > 256 µg/mL | MIC (K. pneumoniae; [9]): > 256 µg/mL | MIC (K. pneumoniae; [10]): 2 µg/mL (≈ 3.42 µM) | MIC (K. pneumoniae; strain 1800, K. pneumoniae, AAC(6′)-I + AAC(3)-I): 32 µg/mL | MIC (K. pneumoniae; strain 13000, K. pneumoniae, APH(3′)-I + AAC(3)-V): 0.5 µg/mL | MIC (K. pneumoniae; strain 22233, K. pneumoniae, AAC(3)-V): 16 µg/mL (≈ 27.3 µM) | MIC (K. pneumoniae; strain N34, K. pneumoniae, rmtC): > 512 µg/mL | MIC (K. pneumoniae; strain R108, K. pneumoniae, armA): > 512 µg/mL | MIC (K. pneumoniae; strain R347, K. pneumoniae, susceptible): 4 µg/mL (≈ 6.83 µM) | MIC (K. pneumoniae; strain R500, K. pneumoniae, armA): > 512 µg/mL | MIC (K. pneumoniae; strain R502, K. pneumoniae, rmtF): > 512 µg/mL | MIC (K. pneumoniae; strain R2160, K. pneumoniae, rmtG): > 512 µg/mL | MIC (K. pneumoniae; strain R2257, K. pneumoniae, armA): > 512 µg/mL | MIC (K. pneumoniae; strain S155, K. pneumoniae, susceptible): 2 µg/mL (≈ 3.42 µM) | Amikacin Phenotype (K. pneumoniae; [1]): S (amikacin MICs≤16 mg/L were categorized as susceptible) | Amikacin Phenotype (K. pneumoniae; [2]): S (amikacin MICs≤16 mg/L were categorized as susceptible) | Amikacin Phenotype (K. pneumoniae; [3]): R (amikacin MICs≥64 mg/L were categorized as resistant) | Amikacin Phenotype (K. pneumoniae; [4]): R (amikacin MICs≥64 mg/L were categorized as resistant) | Amikacin Phenotype (K. pneumoniae; [5]): S (amikacin MICs≤16 mg/L were categorized as susceptible) | Amikacin Phenotype (K. pneumoniae; [6]): R (amikacin MICs≥64 mg/L were categorized as resistant) | Amikacin Phenotype (K. pneumoniae; [7]): R (amikacin MICs≥64 mg/L were categorized as resistant) | Amikacin Phenotype (K. pneumoniae; [8]): R (amikacin MICs≥64 mg/L were categorized as resistant) | Amikacin Phenotype (K. pneumoniae; [9]): R (amikacin MICs≥64 mg/L were categorized as resistant) | Amikacin Phenotype (K. pneumoniae; [10]): S (amikacin MICs≤16 mg/L were categorized as susceptible) | MIC (E. cloacae; [11]): 1 µg/mL (≈ 1.71 µM) | MIC (E. cloacae; [12]): 4 µg/mL (≈ 6.83 µM) | MIC (E. cloacae; [13]): 4 µg/mL (≈ 6.83 µM) | MIC (E. cloacae; [14]): 4 µg/mL (≈ 6.83 µM) | MIC (E. cloacae; [15]): > 256 µg/mL | MIC (E. cloacae; strain 1110, E. cloacae, ANT(2″)): 1 µg/mL (≈ 1.71 µM) | MIC (E. cloacae; strain HM, E. cloacae, susceptible): 4 µg/mL (≈ 6.83 µM) | MIC (E. cloacae; strain R713, E. cloacae, susceptible): 4 µg/mL (≈ 6.83 µM) | MIC (E. cloacae; strain R1433, E. cloacae, susceptible): 4 µg/mL (≈ 6.83 µM) | MIC (E. cloacae; strain R2258, E. cloacae, armA): > 512 µg/mL | Amikacin Phenotype (E. cloacae; [11]): S (amikacin MICs≤16 mg/L were categorized as susceptible) | Amikacin Phenotype (E. cloacae; [12]): S (amikacin MICs≤16 mg/L were categorized as susceptible) | Amikacin Phenotype (E. cloacae; [13]): S (amikacin MICs≤16 mg/L were categorized as susceptible) | Amikacin Phenotype (E. cloacae; [14]): S (amikacin MICs≤16 mg/L were categorized as susceptible) | Amikacin Phenotype (E. cloacae; [15]): R (amikacin MICs≥64 mg/L were categorized as resistant) | MIC (P. mirabilis; [16]): 4 µg/mL (≈ 6.83 µM) | MIC (P. mirabilis; strain R263, P. mirabilis, armA): > 512 µg/mL | MIC (P. mirabilis; strain R2260, P. mirabilis, susceptible): 4 µg/mL (≈ 6.83 µM) | Amikacin Phenotype (P. mirabilis; [16]): S (amikacin MICs≤16 mg/L were categorized as susceptible) | MIC (P. stuartii; [17]): 64 µg/mL | MIC (P. stuartii; isolate R38, P. stuartii, rmtC): > 256 µg/mL | MIC (P. stuartii; [18]): > 256 µg/mL | MIC (P. stuartii; strain BM2667, P. stuartii, APH(3′)-VI + AAC(2′)): 64 µg/mL | MIC (P. stuartii; strain R38, P. stuartii, rmtC): > 512 µg/mL | MIC (P. stuartii; strain R265, P. stuartii, rmtC): > 512 µg/mL | Amikacin Phenotype (P. stuartii; [17]): R (amikacin MICs≥64 mg/L were categorized as resistant) | Amikacin Phenotype (P. stuartii; isolate R38, P. stuartii, rmtC): R (amikacin MICs≥64 mg/L were categorized as resistant) | Amikacin Phenotype (P. stuartii; [18]): R (amikacin MICs≥64 mg/L were categorized as resistant) | MIC (P. rettgeri; Providencia rettgeri, isolate 531, P. rettgeri, read-out: MIC): 16 µg/mL (≈ 27.3 µM) | Amikacin Phenotype (P. rettgeri; isolate 531, P. rettgeri): S (amikacin MICs≤16 mg/L were categorized as susceptible) | MIC (P. rettgeri; strain 531, P. rettgeri): 16 µg/mL (≈ 27.3 µM) | MIC (S. marcescens; Serratia marcescens, isolate 4290, S. marcescens, read-out: MIC): 4 µg/mL (≈ 6.83 µM) | Amikacin Phenotype (S. marcescens; isolate 4290, S. marcescens): S (amikacin MICs≤16 mg/L were categorized as susceptible) | MIC (S. marcescens; strain 4290, S. marcescens): 4 µg/mL (≈ 6.83 µM) | MIC (A. baumannii): 128 µg/mL (≈ 219 µM) | MIC (A. baumannii; strain 4996, A. baumannii, AAC(6′)-I, read-out: MIC): 64 µg/mL (≈ 109 µM) | MIC (A. baumannii; strain BM2580, A. baumannii, APH(3′)-VI, read-out: MIC): 64 µg/mL (≈ 109 µM) | MIC (A. baumannii; strain R264, A. baumannii, armA, read-out: MIC): > 512 µg/mL | MIC (A. baumannii; strain R1395, A. baumannii, susceptible, read-out: MIC): 2 µg/mL (≈ 3.42 µM) | MIC (P. aeruginosa; strain 3655, P. aeruginosa, APH(3′)-I + ANT(2″)): 1 µg/mL | MIC (P. aeruginosa; strain 3658, P. aeruginosa, APH(3′)-I + ANT(4′)-II): > 128 µg/mL | MIC (P. aeruginosa; strain 28233, P. aeruginosa, APH(3′)-I + AAC(3)-I): 4 µg/mL | MIC (P. aeruginosa; strain R191, P. aeruginosa, susceptible): 8 µg/mL (≈ 13.7 µM)
